Calls of active or inactive are those of the source.

The term Emax denotes the greatest response seen or fitted, relative to the assay's reference. Broadly, the EC50 is the concentration needed to bring the measured effect to its halfway point. As usually defined, the half-life is the time needed for the level to fall by half in the phase considered.

The nature of data set [1]: Agonist activity at NPFF1R (unknown origin) transfected in CHO cells co-expressing Galphaq15 assessed as increase in calcium mobilization by measuring maximal efficacy by Fluo-4AM dye based assay relative to control. The data set is classed as functional, cell-based. The note with it: Homo sapiens, filed as agonist. For orientation: A change in cytosolic calcium serves as a functional read-out for many receptors and channels.

Data set [2] addresses T1, Mu-type opioid receptor (Homo sapiens, UniProt P35372). Nature of the data set: Agonist activity at MOR (unknown origin) transfected in CHO cells co-expressing Galphaq15 assessed as increase in calcium mobilization by Fluo-4AM dye based assay. The data set is classed as functional, cell-based.
In data set [3] the target is T1, Mu-type opioid receptor. The data set can be described thus: Agonist activity at MOR (unknown origin) transfected in CHO cells co-expressing Galphaq15 assessed as increase in calcium mobilization by measuring maximal efficacy by Fluo-4AM dye based assay relative to control. The data set is classed as functional, cell-based. The note with it: filed as agonist.
Data set [4] has as its target T2, Kappa-type opioid receptor (Homo sapiens, UniProt P41145). The data set can be described thus: Agonist activity at KOR (unknown origin) transfected in CHO cells co-expressing Galphaq15 assessed as increase in calcium mobilization by Fluo-4AM dye based assay. The data set is classed as functional, cell-based.
The target in data set [5] is T2, Kappa-type opioid receptor. Nature of the data set: Agonist activity at KOR (unknown origin) transfected in CHO cells co-expressing Galphaq15 assessed as increase in calcium mobilization by measuring maximal efficacy by Fluo-4AM dye based assay relative to control. The data set is classed as functional, cell-based. The note with it: filed as agonist.
For data set [6], the target named is T3, Delta-type opioid receptor (Homo sapiens, UniProt P41143). Nature of the data set: Agonist activity at DOR (unknown origin) transfected in CHO cells co-expressing Galphaq15 assessed as increase in calcium mobilization by Fluo-4AM dye based assay. The data set is classed as functional, cell-based.
T3 sequence (P41143 whole entry): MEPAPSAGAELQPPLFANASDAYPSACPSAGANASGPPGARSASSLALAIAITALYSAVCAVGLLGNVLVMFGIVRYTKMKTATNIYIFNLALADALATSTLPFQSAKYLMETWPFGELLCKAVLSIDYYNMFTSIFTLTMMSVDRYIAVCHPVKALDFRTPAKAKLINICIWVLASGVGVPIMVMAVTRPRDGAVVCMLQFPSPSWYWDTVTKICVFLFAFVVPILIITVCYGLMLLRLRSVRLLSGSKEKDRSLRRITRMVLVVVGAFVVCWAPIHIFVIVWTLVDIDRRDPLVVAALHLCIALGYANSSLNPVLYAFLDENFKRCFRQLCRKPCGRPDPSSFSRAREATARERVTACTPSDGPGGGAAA
Data set [7] deals with T3, Delta-type opioid receptor. Nature of the data set: Agonist activity at DOR (unknown origin) transfected in CHO cells co-expressing Galphaq15 assessed as increase in calcium mobilization by measuring maximal efficacy by Fluo-4AM dye based assay relative to control. The data set is classed as functional, cell-based. The note with it: filed as agonist.
Data set [8] has as its target T4, Neuropeptide FF receptor 2 (Homo sapiens, UniProt Q9Y5X5). Nature of the data set: Agonist activity at NPFF2R (unknown origin) transfected in HEK293 cells co-expressing Galphaq15 assessed as increase in calcium mobilization by Fluo-4AM dye based assay. The data set is classed as functional, cell-based.
For data set [9], the target named is T4, Neuropeptide FF receptor 2. The data set can be described thus: Agonist activity at NPFF2R (unknown origin) transfected in HEK293 cells co-expressing Galphaq15 assessed as increase in calcium mobilization by measuring maximal efficacy by Fluo-4AM dye based assay relative to control. The note with it: filed as agonist. The data set is classed as functional, cell-based.

Data set [10] in a line: Metabolic stability in mouse plasma assessed as degradation half life at 10 mM measured upto 480 mins by RP-HPLC analysis. The data set is classed as ADME, cell-free.
Data set [11] in a line: Metabolic stability in mouse brain homogenate assessed as degradation half life at 10 mM measured upto 480 mins by RP-HPLC analysis. The data set is classed as ADME, tissue-based.
In data set [12] the test system is Mus musculus. The data set can be described thus: Antinociceptive activity in Kunming mouse assessed as changes in tail flick latency by measuring maximal possible effect at 8.8 nmol/kg, sc measured after 20 mins by tail-flick test. The data set is classed as functional. A general note: Hot-plate and tail-flick tests time the reaction to a heat stimulus.
The test system of data set [13] is Mus musculus. Nature of the data set: Antinociceptive activity in Kunming mouse assessed as changes in tail flick latency by measuring maximal possible effect at 8.8 nmol/kg, sc measured after 30 mins by tail-flick test. The data set is classed as functional. The note with it: 0.5 h.
In data set [14] the test system is Mus musculus. The data set can be described thus: Antinociceptive activity in Kunming mouse assessed as changes in tail flick latency by measuring maximal possible effect at 8.8 nmol/kg, sc measured after 60 mins by tail-flick test. The data set is classed as functional. The note with it: 1 h.
The test system of data set [15] is Mus musculus. Nature of the data set: Antinociceptive activity in Kunming mouse assessed as changes in tail flick latency by measuring maximal possible effect at 8.8 nmol/kg, sc measured after 120 mins by tail-flick test. The data set is classed as functional. The note with it: 2 h.
Data set [16] has as its system Mus musculus. Nature of the data set: Antinociceptive activity in Kunming mouse assessed as changes in tail flick latency by measuring maximal possible effect at 8.8 nmol/kg, sc measured after 240 mins by tail-flick test. The data set is classed as functional. The note with it: 4 h.
Data set [17] concerns Mus musculus. The data set can be described thus: Antinociceptive activity in Kunming mouse assessed as changes in tail flick latency by measuring time duration of antinociceptive effect at 8.8 nmol/kg, sc by tail-flick test. The data set is classed as functional.
Data set [18] concerns Mus musculus. Nature of the data set: Antinociceptive activity in Kunming mouse assessed as changes in tail flick latency at 8.8 nmol/kg, sc pretreated with naloxone methiodide at 5 nmol, icv for 10 mins followed by compound addition and measured for 360 mins by tail-flick test. The data set is classed as functional, organism-based.
For data set [19], the system named is Mus musculus. The data set can be described thus: Antinociceptive activity in Kunming mouse assessed as changes in tail flick latency by measuring maximal possible effect at 26.1 nmol/kg, sc measured after 20 mins by tail-flick test. The data set is classed as functional.
Data set [20] relates to Mus musculus. The data set can be described thus: Antinociceptive activity in Kunming mouse assessed as changes in tail flick latency by measuring maximal possible effect at 26.1 nmol/kg, sc measured after 30 mins by tail-flick test. The data set is classed as functional. The note with it: 0.5 h.
Data set [21] has as its system Mus musculus. Nature of the data set: Antinociceptive activity in Kunming mouse assessed as changes in tail flick latency by measuring maximal possible effect at 26.1 nmol/kg, sc measured after 60 mins by tail-flick test. The data set is classed as functional. The note with it: 1 h.
The subject of data set [22] is Mus musculus. The data set can be described thus: Antinociceptive activity in Kunming mouse assessed as changes in tail flick latency by measuring maximal possible effect at 26.1 nmol/kg, sc measured after 120 mins by tail-flick test. The data set is classed as functional. The note with it: 2 h.
Data set [23] deals with Mus musculus. Nature of the data set: Antinociceptive activity in Kunming mouse assessed as changes in tail flick latency by measuring maximal possible effect at 26.1 nmol/kg, sc measured after 240 mins by tail-flick test. The data set is classed as functional. The note with it: 4 h.
Data set [24] deals with Mus musculus. The data set can be described thus: Antinociceptive activity in Kunming mouse assessed as changes in tail flick latency by measuring time duration of antinociceptive effect at 26.1 nmol/kg, sc by tail-flick test. The data set is classed as functional.
In data set [25] the test system is Mus musculus. The data set can be described thus: Antinociceptive activity in Kunming mouse assessed as changes in tail flick latency at 26.1 nmol/kg, sc pretreated with naloxone methiodide at 5 nmol, icv for 10 mins followed by compound addition and measured for 360 mins by tail-flick test. The data set is classed as functional, organism-based.

T1 sequence (P35372 whole entry): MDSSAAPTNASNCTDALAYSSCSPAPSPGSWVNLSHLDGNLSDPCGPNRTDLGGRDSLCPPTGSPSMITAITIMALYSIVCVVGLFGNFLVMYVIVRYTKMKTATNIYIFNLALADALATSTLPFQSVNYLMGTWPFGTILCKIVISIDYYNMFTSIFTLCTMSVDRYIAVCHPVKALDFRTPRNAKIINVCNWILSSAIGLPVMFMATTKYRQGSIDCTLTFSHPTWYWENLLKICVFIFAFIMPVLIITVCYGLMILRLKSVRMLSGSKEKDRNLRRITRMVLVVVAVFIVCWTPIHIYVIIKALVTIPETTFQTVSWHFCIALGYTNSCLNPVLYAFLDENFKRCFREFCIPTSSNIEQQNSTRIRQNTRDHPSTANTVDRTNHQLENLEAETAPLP
T2 sequence (P41145 whole entry): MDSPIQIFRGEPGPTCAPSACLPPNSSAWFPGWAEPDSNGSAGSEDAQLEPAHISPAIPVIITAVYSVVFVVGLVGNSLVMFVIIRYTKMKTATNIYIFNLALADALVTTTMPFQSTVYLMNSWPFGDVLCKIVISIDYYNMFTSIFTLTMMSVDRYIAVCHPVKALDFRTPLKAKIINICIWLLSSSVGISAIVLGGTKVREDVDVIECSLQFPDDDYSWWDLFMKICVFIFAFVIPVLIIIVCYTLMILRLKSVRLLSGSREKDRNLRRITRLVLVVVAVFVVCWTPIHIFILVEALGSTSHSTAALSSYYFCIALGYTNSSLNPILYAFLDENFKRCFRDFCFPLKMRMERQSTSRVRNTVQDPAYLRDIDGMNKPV
T4 sequence (Q9Y5X5 whole entry): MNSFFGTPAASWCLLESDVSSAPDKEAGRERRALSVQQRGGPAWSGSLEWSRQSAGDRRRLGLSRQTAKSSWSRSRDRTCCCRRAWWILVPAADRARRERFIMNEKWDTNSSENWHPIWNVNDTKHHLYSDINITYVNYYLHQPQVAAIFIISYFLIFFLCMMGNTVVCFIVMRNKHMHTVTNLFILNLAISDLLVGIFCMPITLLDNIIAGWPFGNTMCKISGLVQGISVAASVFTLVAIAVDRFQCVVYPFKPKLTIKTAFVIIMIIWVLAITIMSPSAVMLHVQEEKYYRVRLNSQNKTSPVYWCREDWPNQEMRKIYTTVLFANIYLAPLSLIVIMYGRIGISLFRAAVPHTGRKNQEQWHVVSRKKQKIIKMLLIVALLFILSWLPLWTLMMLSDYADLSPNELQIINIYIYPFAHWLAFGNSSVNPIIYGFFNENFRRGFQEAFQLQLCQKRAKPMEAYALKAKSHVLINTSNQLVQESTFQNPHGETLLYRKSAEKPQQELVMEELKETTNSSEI

In the case of `CC(C)C[C@H](NC(=O)[C@@H](N)Cc1ccccc1)C(=O)N[C@@H](Cc1ccccc1)C(=O)N[C@@H](CCC(N)=O)C(=O)N1CCC[C@H]1C(=O)N[C@@H](CCC(N)=O)C(=O)N[C@@H](CCCN=C(N)N)C(=O)N[C@@H](Cc1ccccc1)C(N)=O`, the Emax in data set [1] was determined as 97.9%.

On to `CN1C(=O)CNC(=O)[C@H](N[C@@H](Cc2ccc(O)cc2)C(=O)O)CCC/C=C/CC[C@@H](C(=O)N2CCC[C@H]2C(=O)N[C@@H](CCC(N)=O)C(=O)N[C@@H](CCCNC(=N)N)C(=O)N[C@@H](Cc2ccccc2)C(N)=O)NC(=O)[C@@H]1Cc1ccccc1`, for which the EC50 on Mu-type opioid receptor [2] is 7.6 nM; in [4], 273 nM; in [6] it was 23.9 nM; in [8], 3110 nM. Further, the Emax on Mu-type opioid receptor [3] is 102%; in data set [5], 96.4%; in data set [7], 98.2%; in [1], 91.8%; in [9], 118%. Further, the half-life at 10000 µM stood at 0.537 h in data set [10] and 1.83 h in data set [11]. Besides, the MPE with Mus musculus [12] turned out to be 89.9%; with Mus musculus [13], 96.5%; in the data set on Mus musculus [14] it was 72.1%; with Mus musculus [15] it was 74.2%; in the data set with Mus musculus [16], 47.8%. Moreover, the Time with Mus musculus [17] is recorded as 360 min. Also, the outcome with Mus musculus [18] was inactive.

Regarding `CN1C(=O)CNC(=O)[C@@H](N[C@@H](Cc2ccc(O)cc2)C(=O)O)C/C=C/CCCC[C@H](C(=O)N2CCC[C@H]2C(=O)N[C@@H](CCC(N)=O)C(=O)N[C@@H](CCCNC(=N)N)C(=O)N[C@@H](Cc2ccccc2)C(N)=O)NC(=O)[C@@H]1Cc1ccccc1`, the EC50 is 2900 nM at Mu-type opioid receptor [2], 1230 nM in data set [4], 8920 nM in [6] and 3760 nM in data set [8]. The Emax on Mu-type opioid receptor [3] was 81%; in data set [5] it was 56.1%; in data set [7] it was 99.4%; in [1], 124%; in data set [9], 40.9%. For the same molecule, the figures for the half-life at 10000 µM in data set [10] and in data set [11] were 0.13 h and 1.47 h, respectively. Further, the MPE in the data set on Mus musculus [12] worked out at 92.8%; in the data set with Mus musculus [13], 93.6%; in the data set on Mus musculus [14] it was 79%; with Mus musculus [15] it was 71.5%; with Mus musculus [16] it was 41.6%. The Time with Mus musculus [17] is 360 min. Besides, in the data set with Mus musculus [18], the result was inactive.

Take `CN1C(=O)CNC(=O)[C@H](N[C@@H](Cc2ccc(O)cc2)C(=O)O)CCCC/C=C/CC[C@@H](C(=O)N2CCC[C@H]2C(=O)N[C@@H](CCC(N)=O)C(=O)N[C@@H](CCCNC(=N)N)C(=O)N[C@@H](Cc2ccccc2)C(N)=O)NC(=O)[C@@H]1Cc1ccccc1`: the EC50 is 1.2 nM on Mu-type opioid receptor [2], 132 nM in data set [4], 13.4 nM in data set [6] and 9770 nM in data set [8]. The Emax is 84.6% at Mu-type opioid receptor [3]; 100% in data set [5]; 73.8% in data set [7]; 91.9% in [1]; 125% in data set [9]. The half-life at 10000 µM in data set [10] is 1.01 h; in data set [11], 2.26 h. Further, the MPE in the data set on Mus musculus [19] is listed as 91.9%; in the data set with Mus musculus [20], 92.1%; with Mus musculus [21], 80.3%; in the data set with Mus musculus [22] it was 69%; in the data set on Mus musculus [23], 42.3%. For the same molecule, the Time with Mus musculus [24] is on record as 360 min. In addition, the result in the data set on Mus musculus [25] was inactive.

Values taken from ChEMBL document CHEMBL5356973 (J Med Chem, 2023).
